Like-named read-outs stand apart in the source and are kept apart here.
Assays:
Format in all cases: cell-based
[1] = molecular target: protein kinases (human kinome) (Homo sapiens, UniProt Q2M2I8); conditions: experiment wp195
[2] = molecular target: protein kinases (human kinome) (Homo sapiens, UniProt P30291); conditions: for logFC of WEE1: WEE1 P30291-1
[3] = molecular target: protein kinases (human kinome) (Homo sapiens, UniProt Q9H0K1); conditions: experiment wp195
[4] = system: protein kinases (human kinome); conditions: for logFC ABL1: ABL1 (P00519-2); for logFC of SRC: Accession P12931-2; for logFC LCK: accession P06239-3; for logFC PDK3: PDK3 (Q15120-2)
[5] = molecular target: protein kinases (human kinome) (Homo sapiens, UniProt P16591); conditions: for logFC of FER (P16591-1): down; for logFC of FER: FER P16591-1
[6] = experiment wp056, direction of change down
[7] = experiment wp103, direction of change down
[8] = experiment wp107, direction of change down

protein kinases (human kinome) (Homo sapiens, UniProt P16591), sequence (P16591 whole entry): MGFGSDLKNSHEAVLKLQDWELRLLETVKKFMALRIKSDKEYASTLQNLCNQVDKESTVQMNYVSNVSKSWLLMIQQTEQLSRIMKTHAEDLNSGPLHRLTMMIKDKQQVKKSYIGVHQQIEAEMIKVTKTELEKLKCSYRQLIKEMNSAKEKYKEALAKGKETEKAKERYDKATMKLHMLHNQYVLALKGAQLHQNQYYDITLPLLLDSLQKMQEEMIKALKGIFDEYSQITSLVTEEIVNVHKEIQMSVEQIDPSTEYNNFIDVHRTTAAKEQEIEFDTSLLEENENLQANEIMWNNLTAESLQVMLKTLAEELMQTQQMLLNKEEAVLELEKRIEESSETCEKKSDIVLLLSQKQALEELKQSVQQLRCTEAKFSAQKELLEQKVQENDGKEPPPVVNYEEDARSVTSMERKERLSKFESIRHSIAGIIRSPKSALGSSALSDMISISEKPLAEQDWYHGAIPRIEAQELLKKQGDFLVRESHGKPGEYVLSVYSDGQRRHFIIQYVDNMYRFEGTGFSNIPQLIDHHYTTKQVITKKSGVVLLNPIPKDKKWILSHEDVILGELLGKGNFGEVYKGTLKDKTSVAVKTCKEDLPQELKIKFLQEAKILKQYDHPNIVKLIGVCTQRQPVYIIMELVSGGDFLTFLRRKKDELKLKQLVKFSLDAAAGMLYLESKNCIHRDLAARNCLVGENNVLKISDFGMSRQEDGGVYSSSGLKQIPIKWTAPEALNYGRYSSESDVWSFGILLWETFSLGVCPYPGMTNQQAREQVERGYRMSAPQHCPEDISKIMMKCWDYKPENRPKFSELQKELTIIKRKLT
protein kinases (human kinome) (Homo sapiens, UniProt P30291), sequence (P30291 whole entry): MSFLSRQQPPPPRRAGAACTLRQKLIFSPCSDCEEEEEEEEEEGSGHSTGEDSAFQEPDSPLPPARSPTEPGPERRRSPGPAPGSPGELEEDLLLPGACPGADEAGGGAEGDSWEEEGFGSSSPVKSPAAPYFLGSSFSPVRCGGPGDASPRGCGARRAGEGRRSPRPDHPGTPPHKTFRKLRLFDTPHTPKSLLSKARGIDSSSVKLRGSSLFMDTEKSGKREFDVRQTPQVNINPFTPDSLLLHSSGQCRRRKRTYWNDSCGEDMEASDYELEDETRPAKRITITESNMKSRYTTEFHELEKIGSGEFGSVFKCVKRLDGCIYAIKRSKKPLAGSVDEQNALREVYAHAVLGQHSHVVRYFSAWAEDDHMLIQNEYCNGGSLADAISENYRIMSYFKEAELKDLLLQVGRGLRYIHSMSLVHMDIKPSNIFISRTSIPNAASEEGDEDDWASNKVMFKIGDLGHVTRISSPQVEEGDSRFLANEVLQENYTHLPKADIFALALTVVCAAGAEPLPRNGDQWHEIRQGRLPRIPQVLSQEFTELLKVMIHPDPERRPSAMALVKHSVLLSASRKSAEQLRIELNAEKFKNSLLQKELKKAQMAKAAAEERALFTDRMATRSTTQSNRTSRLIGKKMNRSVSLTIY
protein kinases (human kinome) (Homo sapiens, UniProt Q2M2I8), sequence (Q2M2I8 whole entry): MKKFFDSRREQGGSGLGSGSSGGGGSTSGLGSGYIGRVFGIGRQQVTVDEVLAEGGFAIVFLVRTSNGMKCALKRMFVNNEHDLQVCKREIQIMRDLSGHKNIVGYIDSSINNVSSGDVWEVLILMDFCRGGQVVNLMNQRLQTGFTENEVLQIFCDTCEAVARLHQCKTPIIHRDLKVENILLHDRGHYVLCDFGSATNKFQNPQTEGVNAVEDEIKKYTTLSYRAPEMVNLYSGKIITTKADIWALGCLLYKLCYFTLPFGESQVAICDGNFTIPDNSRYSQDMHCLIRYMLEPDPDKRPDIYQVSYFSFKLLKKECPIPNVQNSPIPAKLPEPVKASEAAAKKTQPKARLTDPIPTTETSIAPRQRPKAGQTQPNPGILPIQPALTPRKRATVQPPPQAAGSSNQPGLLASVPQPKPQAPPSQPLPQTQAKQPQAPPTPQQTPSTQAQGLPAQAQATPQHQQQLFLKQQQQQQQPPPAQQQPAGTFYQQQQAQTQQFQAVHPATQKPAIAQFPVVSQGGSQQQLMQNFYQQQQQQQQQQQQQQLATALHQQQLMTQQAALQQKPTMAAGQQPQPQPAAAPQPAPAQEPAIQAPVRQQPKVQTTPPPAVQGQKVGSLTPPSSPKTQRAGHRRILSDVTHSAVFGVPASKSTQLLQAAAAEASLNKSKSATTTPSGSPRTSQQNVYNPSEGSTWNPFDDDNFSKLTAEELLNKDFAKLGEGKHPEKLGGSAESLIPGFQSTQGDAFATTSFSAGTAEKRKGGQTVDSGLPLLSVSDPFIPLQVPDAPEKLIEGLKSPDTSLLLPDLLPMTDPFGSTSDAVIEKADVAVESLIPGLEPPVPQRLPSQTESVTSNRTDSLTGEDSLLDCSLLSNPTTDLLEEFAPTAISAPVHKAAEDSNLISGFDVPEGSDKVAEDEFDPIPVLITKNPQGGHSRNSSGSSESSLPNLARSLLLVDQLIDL
protein kinases (human kinome) (Homo sapiens, UniProt Q9H0K1), sequence (Q9H0K1 whole entry): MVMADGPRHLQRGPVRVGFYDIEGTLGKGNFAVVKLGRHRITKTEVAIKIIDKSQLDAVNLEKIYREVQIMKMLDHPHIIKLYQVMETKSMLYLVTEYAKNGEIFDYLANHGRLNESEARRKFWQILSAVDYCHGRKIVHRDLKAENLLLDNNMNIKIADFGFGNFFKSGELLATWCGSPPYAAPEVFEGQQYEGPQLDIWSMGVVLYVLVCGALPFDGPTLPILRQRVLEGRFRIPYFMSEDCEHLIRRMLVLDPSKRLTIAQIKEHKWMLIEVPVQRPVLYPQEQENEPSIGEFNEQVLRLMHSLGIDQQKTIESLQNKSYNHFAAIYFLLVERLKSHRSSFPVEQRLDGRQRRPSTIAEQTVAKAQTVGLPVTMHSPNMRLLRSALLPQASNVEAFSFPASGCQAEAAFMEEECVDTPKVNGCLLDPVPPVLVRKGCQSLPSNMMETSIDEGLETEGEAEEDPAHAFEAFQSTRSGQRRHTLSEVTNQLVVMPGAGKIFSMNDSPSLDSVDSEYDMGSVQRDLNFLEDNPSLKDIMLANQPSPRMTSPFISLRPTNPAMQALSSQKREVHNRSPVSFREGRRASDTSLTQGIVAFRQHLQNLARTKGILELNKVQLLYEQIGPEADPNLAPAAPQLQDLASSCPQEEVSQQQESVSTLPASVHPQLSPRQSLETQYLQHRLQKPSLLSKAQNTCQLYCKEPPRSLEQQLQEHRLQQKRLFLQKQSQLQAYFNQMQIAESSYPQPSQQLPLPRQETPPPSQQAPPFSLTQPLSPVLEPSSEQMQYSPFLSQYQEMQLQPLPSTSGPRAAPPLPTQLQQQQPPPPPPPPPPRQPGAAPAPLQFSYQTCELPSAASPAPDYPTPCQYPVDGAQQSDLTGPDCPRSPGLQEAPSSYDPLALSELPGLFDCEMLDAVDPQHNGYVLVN

With `Cc1cnc(Nc2ccc(N3CCN(CCCCCCC(=O)N[C@H](C(=O)N4C[C@H](O)C[C@H]4C(=O)N[C@@H](C)c4ccc(-c5scnc5C)cc4)C(C)(C)C)CC3)cc2)nc1Nc1cccc(S(=O)(=O)NC(C)(C)C)c1` [JWG.123] the “logFC AAK1” value ([1]; AAK1 (Q2M218-1), down) was −1.091, the “logFC AAK1” value ([1]; AAK1, accession Q2M218-1, direction of change down) was −1.091 and the “logFC of WEE1” value ([2]; experiment wp195) was −1.368. For the same molecule, the “logFC of WEE1 (P30291-1)” value ([2]; experiment wp195, direction of change down) was −1.368, the “logFC of SIK2” value ([3]; Accession Q9H0K1) was −0.6143 and the “logFC SIK2 (Q9H0K1)” value ([3]; direction of change down) was −0.6143.

With `Cc1ccc(C(=O)Nc2ccc(CN3CCN(CCCOCCOCCOCCNC(=O)COc4cccc5c4C(=O)N(C4CCC(=O)NC4=O)C5=O)CC3)c(C(F)(F)F)c2)cc1C#Cc1cnc2cccnn12` (stereo not drawn) [SB1.G.187] the “logFC ABL1” value ([4]; experiment wp056) was −0.5173, the “logFC ABL1” value ([4]; experiment wp103) was −0.754 and the “logFC ABL1” value ([4]; experiment wp107) was −0.5339. For the same molecule, the “logFC FYN” value ([4]; Accession P06241-2, experiment wp107) was −0.5334, the “logFC of SRC” value ([4]; experiment wp056) was −0.604 and the “logFC of SRC” value ([4]; experiment wp103) was −0.8282. For the same molecule, the “logFC of SRC” value ([4]; experiment wp105) was −0.5683, the “logFC of SRC” value ([4]; experiment wp107) was −1.206 and the “logFC MAP3K20 (Q9NYL2-2)” value ([4]; Experiment wp103) was −0.6203. For the same molecule, the “logFC MAP3K20 (Q9NYL2-2)” value ([4]; Experiment wp107) was −0.4387, the “logFC MAP3K20 (Q9NYL2-2)” value ([4]; Experiment wp114) was −0.7846 and the “logFC of LYN (P07948-2)” value ([4]; Experiment wp114) was −0.4408. For the same molecule, the logFC ([4]; FER (P16591-3), experiment wp172, direction down) was −1.394, the “logFC of FER” value ([4]; FER P16591-3, experiment wp172) was −1.394 and the “logFC FYN” value ([4]; FYN P06241-2, experiment wp107) was −0.5334. The logFC ([4]; GK P32189-3, experiment wp056) was −0.4719, the “logFC LCK” value [4, 6] was −1.003 and the “logFC LCK” value [4, 7] was −1.237. For the same molecule, the “logFC LCK” value [4, 8] was −1.237, the logFC ([4]; LYN (P07948-2), experiment wp105) was −1.087 and the logFC ([4]; LYN (P07948-2), experiment wp114) was −0.4408. For the same molecule, the “logFC MAPK14” value ([4]; MAPK14, accession Q16539-2, experiment wp056, direction of change down) was −0.8019, the “logFC MAPK14” value ([4]; MAPK14, accession Q16539-2, experiment wp105, direction of change down) was −0.9084 and the “logFC MAPK14” value ([4]; MAPK14 Q16539-2, experiment wp056) was −0.8019. For the same molecule, the “logFC MAPK14” value ([4]; MAPK14 Q16539-2, experiment wp105) was −0.9084, the “logFC PDK3” value ([4]; experiment wp056) was −0.4827 and the “logFC ABL1 (P00519-2)” value ([4]; experiment wp056) was −0.5173. The “logFC PDK3 (Q15120-2)” value ([4]; experiment wp056) was −0.4827, the “logFC LCK (P06239-3)” value [4, 6] was −1.003 and the “logFC ABL1 (P00519-2)” value ([4]; experiment wp103) was −0.754. For the same molecule, the “logFC MAP3K20 (Q9NYL2-2)” value ([4]; experiment wp103) was −0.6203, the “logFC LCK (P06239-3)” value [4, 7] was −1.237 and the “logFC of LYN (P07948-2)” value ([4]; experiment wp105) was −1.087. For the same molecule, the “logFC ABL1 (P00519-2)” value ([4]; experiment wp107) was −0.5339, the “logFC MAP3K20 (Q9NYL2-2)” value ([4]; experiment wp107) was −0.4387 and the “logFC LCK (P06239-3)” value [4, 8] was −1.237. For the same molecule, the “logFC MAP3K20 (Q9NYL2-2)” value ([4]; experiment wp114) was −0.7846, the “logFC of FER (P16591-1)” value ([5]; Experiment wp056) was −1.267 and the “logFC of FER (P16591-1)” value ([5]; Experiment wp103) was −1.672. For the same molecule, the “logFC of FER (P16591-1)” value ([5]; Experiment wp105) was −1.432, the “logFC of FER (P16591-1)” value ([5]; Experiment wp107) was −1.76 and the “logFC of FER” value ([5]; experiment wp056) was −1.267. The “logFC of FER” value ([5]; experiment wp103) was −1.672, the “logFC of FER” value ([5]; experiment wp105) was −1.432 and the “logFC of FER” value ([5]; experiment wp107) was −1.76.

With `Cc1ccc(C(=O)Nc2ccc(CN3CCN(CCOCCOCCNC(=O)CNc4cccc5c4C(=O)N(C4CCC(=O)NC4=O)C5=O)CC3)c(C(F)(F)F)c2)cc1C#Cc1cnc2cccnn12` (stereo not drawn) [TL13.150] the “logFC of SRC” value ([4]; experiment wp081) was −0.5331, the “logFC MAPK14” value ([4]; MAPK14, accession Q16539-2, experiment wp081, direction of change down) was −0.5025 and the “logFC MAPK14” value ([4]; MAPK14 Q16539-2, experiment wp081) was −0.5025. For the same molecule, the logFC ([4]; SRC (P12931-2) protein abundance, degrader vs DMSO, down) was −0.5331, the “logFC of FER (P16591-1)” value ([5]; Experiment wp081) was −1.511 and the “logFC of FER” value ([5]; experiment wp081) was −1.511.

In the case of `C=CCn1c(=O)c2cnc(Nc3ccc(N4CCN(CCCNc5cccc6c5C(=O)N(C5CCC(=O)NC5=O)C6=O)CC4)cc3)nc2n1-c1cccc(C(C)(C)O)n1` (stereo not drawn) [ZNL.02.096], the logFC ([4]; GK P32189-3, experiment wp056) is reported as −0.3867, the “logFC PDK3” value ([4]; experiment wp056) is reported as −0.3528 and the “logFC PDK3 (Q15120-2)” value ([4]; experiment wp056) is reported as −0.3528. For the same molecule, the “logFC of WEE1” value ([2]; experiment wp081) was −1.97, the “logFC of WEE1” value ([2]; experiment wp106, 2 hr) was −2.525 and the “logFC of WEE1” value ([2]; experiment wp106, 4 hr) was −2.764. The “logFC of WEE1” value ([2]; experiment wp118) was −2.75, the “logFC WEE1 (P30291-1)” value ([2]; experiment wp056) was −2.409 and the “logFC WEE1 (P30291-1)” value ([2]; experiment wp081) was −1.97. The “logFC WEE1 (P30291-1)” value ([2]; experiment wp106, 2 hr) was −2.525, the “logFC WEE1 (P30291-1)” value ([2]; experiment wp106, 4 hr) was −2.764 and the “logFC WEE1 (P30291-1)” value ([2]; experiment wp118) was −2.75.
